Broadly, the melting point is the temperature of the solid-liquid transition.

Experimental findings from a melting point compilation (Tetko et al.; mined from patent text by program, amines drawn as free bases though some values may be those of a salt) are described below.

Turning to `C=CCOc1cccc2c1ONC(=O)C2`, the melting point was in the range of 174 to 175 °C.

In the case of `Cc1ccccc1-c1coc2cc(O)cc(Cl)c2c1=O`, the melting point was above 290 °C.

In the case of `COC(=O)c1nc(CN(C)C)n(-c2ccc(Cl)cc2C(=O)c2ccccc2Cl)n1`, the melting point lay within 131 to 134 °C. The molecule `COc1ccc(C(O)CN2CC=C(C3=NNC(=O)CS3)CC2)cc1` (configuration not stated) displayed a melting point of 197 to 198 °C. With `Cn1cc(CC(=O)O)c2cc(-c3ccc(C(F)(F)F)cc3)ccc21` the figure was 167 to 168 °C; with `COCCc1nc2c(N)nc3ccccc3c2n1CC(C)(C)CNS(C)(=O)=O`, 204 to 206 °C.

As to `CC(C)(C(=O)O)c1ccc(OCCCc2cc3c(cc2O)CC(CCc2ccccc2)O3)cc1` (configuration not stated), the melting point lay in the range of 134 to 136 °C. In turn, `CC1(c2ccccc2)CCC(=O)C=C1C(=O)O` (racemic) gave a melting point of 206 °C.

In turn, `O=c1oc2ccccc2c(O)c1C1CC(c2ccc(-c3ccc(OCc4ccc(Br)cc4)cc3)cc2)Cc2ccccc21` (configuration not stated) came in with a melting point of 240 °C. As for `O=C1C(=Cc2ccccc2)SC(=S)N1N=c1sc2ccccc2s1`, the melting point is 288 to 289 °C. For the molecule `C=CCOc1ccc(COc2ccc(CC(=O)O)cc2Cl)cc1Cl`, the melting point lay in the range of 132 to 134 °C. With `CCn1nc(C(C)(C)C)c2c1C(=O)NCC(c1ccc(O)cc1)=N2`, the melting point came to 264 °C.

As to `CCOc1ccc(C(=O)N2CC(C(=O)OC)N(S(=O)(=O)c3ccc(OC)cc3)Cc3ccccc32)cc1` (configuration not stated), the melting point is 187 to 190 °C. As for `COC(=O)c1cc(C(=O)NCC(=O)O)cc([N+](=O)[O-])c1`, the figure is 142 to 143 °C; as for `Oc1ccc2c(-c3ccccc3)coc2c1`, 138 to 143 °C. `C=CC(=O)NC(C)(C)c1ccc(OCc2ccccc2)cc1` registered a melting point of 116 to 117 °C. With `N#CC(c1ccc(Cl)cc1)c1c(Cl)cc(NN=Cc2ccccc2)cc1Cl` (configuration not stated) the figure was 162 to 163 °C; with `CCOC(=O)c1c[nH]c2nc(NCc3ccccc3)nn2c1=O`, 275 to 278 °C; with `CC1(C)CCn2c(nc(-c3ccncn3)cc2=O)N1`, 265 to 267 °C. `CCOC(=O)C=Cc1ccn(S(=O)(=O)c2ccc3nc[nH]c(=O)c3c2)c1`: the melting point was in the range of 207 to 210 °C. In the case of `CN1C(=O)CC[C@]2(C)c3ccc(CCc4ccc5ccccc5c4)cc3CC[C@@H]12`, the melting point was in the range of 109 to 110 °C. As to `CC(C)(O)Cn1c(CO)nc2c(N)nc3cccnc3c21`, the melting point fell in the range of 235 to 237 °C. With `CCn1c(=O)nc(C(C)C)c2cc3c(cc21)OCO3` the figure was 180 to 185 °C; with `Nc1ccc(-c2cnc3[nH]c(=O)n(CC4CCOCC4)c3n2)cn1`, above 260 °C.

On to `CC(C)c1cccc(C(C)C)c1NC(=O)NCC1(c2ccccc2)CCCCC1`, for which the melting point lay in the range of 168 to 169 °C. Take `CC(C)(C)n1ncc(OCc2ccc(OC(F)(F)C(F)OC(F)(F)F)cc2)c(Cl)c1=O` (configuration not stated): the melting point was 68 to 69 °C. Molecule `COc1ccc(NC(=S)N2CCc3cc(S(=O)(=O)N4CC(c5ccccc5)NC4=O)ccc32)cc1` (configuration not stated) yielded a melting point of 181 to 183 °C. As for `COc1ccc(C2=C(C#N)c3ccc(OC)cc3CC2)cc1`, the figure is 151 °C; as for `COc1cc2ncnc(Nc3cccc4ccccc34)c2cc1OC`, 271 to 273 °C; as for `c1ccc(-c2cc3nccnc3[nH]2)nc1`, 234 to 235 °C. With `O=C(O)CCOc1ccccc1CNC(=O)C1Cc2ccccc2N1S(=O)(=O)c1ccc(-c2cccc(C(F)(F)F)c2)cc1` (configuration not stated) the figure was 100 °C; with `O=C(O)CCCCCCCC(=O)CC(O)C(=O)C=Cc1ccccc1` (configuration not stated), 81.5 to 83 °C.

`COc1cc(OCc2ccc(C(=O)N(C)C3CCCCC3)cc2)cc(OC)c1OC` had a melting point of 116 °C. `CNC(=O)c1cccc(C=NNc2ccc(C)cc2)c1O` yielded a melting point of 108 to 125 °C.

Consider `CCCCCN1CCN(c2cccc3c2C[C@H](NC(C)=O)CC3)CC1`, for which the melting point lay in the range of 119 to 120 °C. As for `NC(=O)Nc1cccc(OCCCCl)c1`, the figure is 141 to 143 °C; as for `COC(=O)c1ccc(C(F)(F)F)cc1NC(C)=O`, 86 to 87 °C; as for `CCOC(=O)c1cc2c(Cl)ncnc2[nH]1`, 219 to 221 °C. As for `Cc1ccc(-c2ccc(/C=C/C(=O)O)o2)cc1`, the figure is 183 to 184 °C. For `CC1CCN(CCCC(=O)c2ccc3c(c2)Cc2cc(C(=O)CCCN4CCC(C)CC4)ccc2-3)CC1`, the melting point was in the range of 180 to 181 °C.

In turn, `O=C1C=c2c(c3c4ccccc4sc3c3[nH]c4ccccc4c23)=N1` gave a melting point above 300 °C. With `COc1cc(C)cc(S(=O)(=O)c2cccc(N)c2C#N)c1` the figure was 166 to 168 °C. With `CCCCCCCCCCOc1ccc(-c2ccc(C#CCCC(C)O)cc2)cc1` (configuration not stated) the figure was 97 to 99 °C. In turn, `O=C(N[C@@H](Cc1ccc2ccccc2c1)[C@H](O)CCl)OCc1ccccc1` gave a melting point of 173 to 174 °C. With `O=[N+]([O-])c1ccc(F)cc1Br`, the melting point amounted to 42 °C. With `O=C1c2ccccc2C(=O)N1CC(=O)N1c2ccccc2N(Cc2cccc3ccccc23)C(=O)[C@H]2CCC[C@H]21` (relative stereo) the figure was 266 to 270 °C. As for `Cc1ccccc1CN(c1ncnc2c1ncn2C1OC(CO)C(O)C1O)C1CCCCC1` (configuration not stated), the figure is 129 to 130 °C. As for `COc1cc(F)ccc1-c1ccc(S(=O)(=O)N2c3ccccc3CC2C(=O)NCCOc2ccc(C(=O)OC(C)(C)C)cc2)cc1` (configuration not stated), the figure is 86 °C; as for `CCCn1c(=O)c2[nH]c(/C=C/c3ccc(OC)c(C)c3C)nc2n(CCC)c1=O`, 271 °C; as for `O=C(O)C=Cc1cc([N+](=O)[O-])c(F)cc1Cl`, 164 to 171 °C. Molecule `CN(C)CC1CCc2c(c3cc(C(N)=O)ccc3n2C)C1=O` (configuration not stated) displayed a melting point of 171 to 173 °C. With `CCOc1cc2cc(C(=O)N3CC(CCl)c4c3cc(N3C(=O)c5ccccc5C3=O)c3ncccc43)[nH]c2c(OCC)c1OCC` (configuration not stated) the figure was 189 to 191 °C; with `CC(=O)Nc1c(SC(F)(F)F)c(C#N)nn1-c1c(Cl)cc(C(F)(F)F)cc1Cl`, 217 to 218 °C. Molecule `COc1cc2c(Oc3cccc4[nH]ccc34)ncnc2cc1OCCCN1CCCCC1` returned a melting point of 80 to 82 °C. As for `COc1ccc(N2CCN(c3c(C)c(C)c4c(c3C)C(c3cccnc3)C(C)(C)O4)CC2)cc1` (configuration not stated), the figure is 159 to 161 °C. As for `COC(=O)c1c(C(=O)OC)c(-c2ccc(OC)cc2)c2cc3c(cc2c1O)OCO3`, the melting point is 169 to 171 °C.

`N#Cc1ccc2c(c1)S(=O)(=O)c1ccccc1C=C2`: the melting point lay in the range of 229 to 231 °C. As for `Cn1cc(-c2cc(-c3cnc4[nH]ccc4c3)ccn2)n(-c2cccc(C#N)c2)c1=O`, the figure is 265 °C.

`O=[N+]([O-])c1cc(C2=NOC(c3cc(C(F)(F)F)cc(C(F)(F)F)c3)(C(F)(F)F)C2)ccc1-n1cnnn1` (configuration not stated) gave a melting point of 173 to 175 °C.

Regarding `Oc1cccc2csnc12`, the melting point lay in the range of 99 to 100 °C.

`CC(C)(C)NC(=O)c1nn(-c2ccc(Br)cc2)c2c1C1CCC2CC1` displayed a melting point of 191 to 193 °C.

Consider `COc1ccc(C(=O)Nc2ccccc2)cc1NC(=O)C(O)c1ccccc1` (configuration not stated), for which the melting point was in the range of 173 to 175 °C.

Consider `O=C1c2c(Br)ccc(Br)c2C(=O)N1CC(F)(F)C(F)(F)C(F)(F)F`, for which the melting point came out at 165 °C. `Cn1c(COc2ccc(CC3SC(=O)NC3=O)cc2)nc2ccc(OCCc3ccc(NC(=O)Nc4ccc(Cl)cc4)cc3)cc21` (configuration not stated) displayed a melting point of 157 to 162 °C. In turn, `CC(Oc1ccc2c(c1)C(O)C(Cc1cccc(C(=O)O)c1)CO2)c1ccc2ccccc2n1` (configuration not stated) yielded a melting point of 70 to 73 °C.

Take `[N-]=[N+]=NS(=O)(=O)c1ccccc1[N+](=O)[O-]`: the melting point fell in the range of 73 to 74 °C. For `CCc1nn2ccccc2c1NC(C)=O`, the melting point was in the range of 184 to 188 °C.

On to `COC1=C(OC)C(=O)c2cc(Sc3ccccc3Cl)ccc2C1=O`, for which the melting point lay within 125 to 126 °C.

For `CCCCCCCCCCCCCCOc1cccc(CBr)c1CBr`, the melting point fell in the range of 55.7 to 56.5 °C. As for `CCN(CC)CCCNC(=O)Cn1cc(-c2ccccc2)cn1`, the figure is 55 to 57 °C; as for `COc1cc(N)c(Cl)cc1C(=O)N[C@H]1CCN(Cc2cnccn2)C[C@H]1OC` (relative stereo), 204 °C; as for `CC(=O)N1CC(Oc2c(C)cccc2C)C1`, 40 to 42.5 °C. As for `NC(=O)c1nnsc1NCCCCCCCCCCCCCCc1ccccc1`, the figure is 79 to 81 °C; as for `Oc1c(F)cc(Cn2c(S)nc3ccccc32)cc1F`, 200 °C. On to `CCc1cc(N)c([N+](=O)[O-])cc1CC`, for which the melting point fell in the range of 63 to 65 °C. Regarding `COC(=O)C12Cc3cc(Cl)ccc3C1=NN(C(=O)N(C)c1ccc(OC(F)(F)F)cc1)CO2` (configuration not stated), the melting point fell in the range of 130 to 131 °C. As for `O=C(O)CNS(=O)(=O)c1cc2ccc(Cl)cc2cc1Cl`, the melting point was in the range of 185 to 188 °C.

Take `Clc1cccc(C2=CCN(Cc3ccccc3)CC2)n1`: the melting point was 100 to 102 °C. As for `COC(=O)c1ccc(C(C)O)cc1` (single isomer, unassigned; (+)), the figure is 52 to 53 °C; as for `CCCCCCOc1cccc(C[C@H](NC(C)=O)[C@H](O)CNCc2cccc(CC)c2)c1`, 102 to 105 °C.

In turn, `CCCCC1(C2CCCC2)Cc2cc(OC)c(Cl)c(Cl)c2C1=O` (configuration not stated) registered a melting point of 122 to 123 °C. `CCCC1=C(C(=O)OCC)C(c2ccncc2)c2c[nH]nc2N1` (configuration not stated) returned a melting point of 266 °C. With `CCCCNC(=O)c1cc(C(C)(C)C)c(O)c(C(C)(C)C)c1` the figure was 181 to 183 °C; with `O=C1C(Br)CCN1c1ncc(C(F)(F)F)s1` (configuration not stated), 105 to 106 °C; with `O=c1c(-c2ccc(Cl)cc2)nc2ccccc2n1CC(F)F`, 133 to 136 °C.

As to `CCCC(=O)Nc1c(Br)cc(C(=O)OCC)cc1CN(CC)CC`, the melting point was determined as 134 °C.

Molecule `COC(=O)c1cn(-c2ccc(O)cc2C)c(C2CCNCC2)cc1=O` displayed a melting point of 226 to 228 °C.
